# Experimental data: patent publication US4250259A, “Microbiological production of ketones from C3 -C6 secondary alcohols” (priority 1979, dated 1981)
# What was measured:
# [1] = tested on: Methylobacterium organophilum XX (ATCC 27886); experiment: sec-alcohols to ketones by resting cell suspensions; assay type: cell-based
# Description: (§1) The pH of the nutrient medium was adjusted to 7.0 by the addition of acid or base and 50 ml. samples of the nutrient medium were charged into a plurality of 300 ml. shaker flasks. The shaker flasks were inoculated with an inoculating loop of cells from an agar plate containing homogeneous colonies of the microorganisms on the plate (the purity of the isolates was confirmed by microscopic examination). The isolates had been maintained on methanol (0.4% V/V) agar plates or on agar plates under an atmosphere of methane and air having a 1:1 V/V gas ratio which had been transferred every two weeks. For growth on methanol, the medium was supplemented with 0.4% methanol. For growth on methane, the gaseous phase of the inoculated flasks was replaced with a gas mixture comprised of methane and air having a ratio of 1:1 on a V/V basis. The inoculated flasks were sealed air-tight and were incubated on a rotary shaker of orbital radius 2.5 cm. at 250 rpm and at 30° C. for two days until turbidity in the medium had developed. The cells were harvested by centrifugation at 10,000×g. at 4° C. for 30 minutes. The cell pellet was washed twice with a 0.05 M phosphate buffer at a pH of 7.0 (containing 0.02 M MgCl2). The washed cells were then suspended in a 0.05 M phosphate buffer at pH 7.0.
# (§2) A 0.5 ml. sample of each washed cell suspension (2 mg. cells) was put into 10 ml. vials at 4° C. which were sealed with a rubber cap. The gaseous phase of the vials was removed with vacuum and then was replaced with a gas mixture of the substrate reactant (i.e., alkane or secondary alcohol) and oxygen at a 1:1 V/V ratio. (In the case of a liquid substrate, i.e., secondary alcohol, 10 μl of the substrate was put in the 10 ml. vials). […] Samples of product (1-3 μl) were withdrawn periodically with a microsyringe and the products were analyzed by gas chromatography (ionization flame detector column).
# (§3) The procedure in Example 1 was repeated wherein a plurality of the methane-utilizing methylotrophic microorganisms were each grown aerobically in a nutrient medium containing methane as the alcohol dehydrogenase enzyme inducer and as the major carbon and energy source for growth. The cells were harvested and washed as described in Example 1. The resting microbial cells of the induced methane-grown methane-utilizing methylotrophic microorganisms were then contacted with C3 -C6 secondary alcohols in a buffered solution by the procedure of Example 1.
# (§4) In this example, the procedure in Example 1 was repeated except that a plurality of methane-utilizing methylotrophic microorganisms were each aerobically grown in a methanol-containing nutrient medium instead of a methane-containing medium. The nutrients in the medium were the same as indicated in Example 1 except that 0.4% V/V methanol was used as the alcohol dehydrogenase inducer and major source of carbon and energy for growth. Following growth, the cells were harvested and washed as described in Example 1.
# (§5) The resting cells of the induced methanol-grown methylotrophic microorganisms were then contacted with secondary alcohols in a buffered solution by the procedure described in Example 1.
# (§6) The procedure in Example 1 was repeated except that the methylotrophic microorganisms were each aerobically grown in an alcohol dehydrogenase-inducing growth medium containing methylamine or methyl formate as the alcohol dehydrogenase enzyme inducer and growth substrate instead of methane. The nutrients in the medium were the same as indicated in Example 1 except that 0.4% V/V of the alcohol dehydrogenase-inducer growth substrate was used as the major carbon and energy source. The cells were harvested and washed as described in Example 1. The resting microbial cells were then contacted with C3 -C6 secondary alcohols in a buffered solution by the conversion procedure of Example 1.
# [2] = tested on: Methylosinus trichosporium OB3b (NRRL B-11,196); experiment: as above; assay type: cell-based
# Description: as §1, §2, §3, §4, §5, §6
# [3] = tested on: Methylobacter capsulatus Y (NRRL B-11,201); experiment: as above; assay type: cell-based
# Description: as §1, §2, §3, §4, §5
# [4] = tested on: Methylococcus capsulatus, Texas (ATCC 19069); experiment: as above; assay type: cell-based
# Description: as §1, §2, §3, §4, §5
# [5] = tested on: Methylocystis parvus OBBP (NRRL B-11,198); experiment: as above; assay type: cell-based
# Description: as §1, §2, §3, §4, §5
# [6] = tested on: Methylomonas methanica S1 (NRRL B-11,199); experiment: as above; assay type: cell-based
# Description: as §1, §2, §3, §4, §5
# [7] = tested on: secondary alcohol dehydrogenase (SADH), cell-free soluble extract; experiment: oxidation of sec-alcohols by cell-free soluble extracts; assay type: biochemical, Methylococcus capsulatus CRL M1 (NRRL B-11,219); conditions: for Oxidation Rate, sec-alcohol to corresponding ketone: soluble crude extract, grown on methanol
# Description: To prepare the cell-free secondary alcohol dehydrogenase (SADH) system, the washed cells were disrupted with a Wave Energy Ultrasonic Oscillator, Model W201 (Wave Energy System, Inc., Newtown, Pa.) and centrifuged at 20,000×g. for 30 minutes. […] The enzyme activity was measured with a fluorescence spectrophotometer (Perkin Elmer, Model MPF 44A) by following the formation of reduced NAD (EX 340 nm, Em 460 nm). The formation of reduced NAD was also followed with an absorption spectrophotometer at 340 nm. The assay system (3 ml.) contained: potassium phosphate buffer pH 7.0; 150 μmol.; NAD 1 μmol.; a given amount of enzyme preparation; and secondary alcohol 10 μmol. The reaction was started by the addition of substrate. One unit of enzyme activity represents the reduction of one μmole NAD per minute. Protein concentrations were determined by the Lowry method (J. Biol. Chem., 193: 255-275 (1951)).
# The experimental procedure for the tests reported in Table VIII were as follows: 1 mg protein of crude extract was added into a 0.5 ml. 0.05 M phosphate buffer (pH 7.0) in a 10-ml. vial. […] The reaction mixture was incubated at 30° C. on a water bath. A 3 μl sample was removed with a syringe at 15 min. of incubation and was assayed with g.l.c. Catalytic activity was also assayed by fluorescence spectrophotometry.
# [8] = tested on: purified secondary alcohol dehydrogenase (SADH); experiment: substrate specificity and Michaelis constants of purified SADH; assay type: biochemical, Pseudomonas sp. ATCC 21439
# [9] = tested on: Torulopsis sp. Strain A1 (NRRLY-11,419); experiment: sec-alcohols to ketones by cell suspensions of yeasts; assay type: cell-based
# [10] = tested on: cell extracts (NAD+-dependent secondary alcohol dehydrogenase); experiment: sec-alcohols to methyl ketones by cell extracts of yeasts, gas chromatography; assay type: biochemical, Torulopsis sp. strain A1 NRRL-Y-11,419; conditions: grown on methanol
# [11] = tested on: cell extracts (NAD+-dependent secondary alcohol dehydrogenase); experiment: as above; assay type: biochemical, Kloeckera sp. strain A2 NRRL-Y-11,420; conditions: grown on methanol
# [12] = tested on: purified secondary alcohol dehydrogenase; experiment: substrate specificity, electron acceptor and stoichiometry of purified yeast SADH; conditions: for oxidation by the purified yeast secondary alcohol dehydrogenase: examined spectrophotometrically
SMILES,"Conversion Rates, sec-alcohol to corresponding ketone ([1]; cells grown on methane) [μmoles/hr/mg protein]","Conversion Rates, sec-alcohol to corresponding ketone ([1]; cells grown on methanol) [μn moles/hr/mg protein]","Conversion Rates, sec-alcohol to corresponding ketone ([1]; methyl formate-grown cells) [μmoles/hr/mg protein]","Conversion Rates, sec-alcohol to corresponding ketone ([2]; cells grown on methane) [μmoles/hr/mg protein]","Conversion Rates, sec-alcohol to corresponding ketone ([2]; cells grown on methanol) [μn moles/hr/mg protein]","Conversion Rates, sec-alcohol to corresponding ketone ([2]; methyl formate-grown cells) [μmoles/hr/mg protein]","Conversion Rates, sec-alcohol to corresponding ketone ([3]; cells grown on methane) [μmoles/hr/mg protein]","Conversion Rates, sec-alcohol to corresponding ketone ([3]; cells grown on methanol) [μn moles/hr/mg protein]","Conversion Rates, sec-alcohol to corresponding ketone ([4]; cells grown on methane) [μmoles/hr/mg protein]","Conversion Rates, sec-alcohol to corresponding ketone ([4]; cells grown on methanol) [μn moles/hr/mg protein]","Conversion Rates, sec-alcohol to corresponding ketone ([5]; cells grown on methane) [μmoles/hr/mg protein]","Conversion Rates, sec-alcohol to corresponding ketone ([5]; cells grown on methanol) [μn moles/hr/mg protein]","Conversion Rates, sec-alcohol to corresponding ketone ([6]; cells grown on methane) [μmoles/hr/mg protein]","Conversion Rates, sec-alcohol to corresponding ketone ([6]; cells grown on methanol) [μn moles/hr/mg protein]","Oxidation Rate, sec-alcohol to corresponding ketone [7] [nmole/min/mg protein]",oxidation by purified SADH [8],"Conversion Rate, sec-alcohol to corresponding ketone ([9]; Growth Substrate Ethanol)","Conversion Rate, sec-alcohol to corresponding ketone ([9]; Growth Substrate Methanol)","Conversion Rate, sec-alcohol to corresponding ketone ([9]; Growth Substrate Methylamine)","Conversion Rate, sec-alcohol to corresponding ketone ([9]; Growth Substrate Methylformate)",other results
"CCC(C)O (centres unmarked) [2-Butanol, 2-butanol]",2.5,2.8,3.5,3.7,4.1,4.5,0.84,1.5,0.60,0.70,1.1,1.0,0.39,0.40,2.0,highest,4.7 μmoles/hr/mg of protein,4.9 μmoles/hr/mg of protein,4.5 μmoles/hr/mg of protein,4.9 μmoles/hr/mg of protein,"Conversion Rate, 2-butanol to 2-butanone ([7]; Growth Substrate CH3 NH2): 1.8 nmoles/min/mg protein; Conversion Rate, 2-butanol to 2-butanone ([7]; Growth Substrate CH3 OH): 2.0 nmoles/min/mg protein; Conversion Rate, 2-butanol to 2-butanone ([7]; Growth Substrate CH4): 3.2 nmoles/min/mg protein; Conversion Rate, 2-butanol to 2-butanone ([7]; Growth Substrate HCOOCH3): 2.0 nmoles/min/mg protein; Conversion Rate, sec-alcohol to corresponding ketone ([9]; Growth Substrate Propylamine): 3.8 μmoles/hr/mg of protein; Conversion Rate, sec-alcohol to methyl ketone [10]: 4.9 μmoles/hr/mg Protein; Conversion Rate, sec-alcohol to methyl ketone [11]: 5.9 μmoles/hr/mg Protein; oxidation by the purified yeast secondary alcohol dehydrogenase [12]: catalyzed the oxidation; Product Formed ([12]; stoichiometry, Acetone from Isopropanol, 2-Butanone from 2-Butanol, gas chromatography): 5.7 µmol"
"CCCCC(C)O (centres unmarked) [2-Hexanol, 2-hexanol]",0.12,1.1,0.70,0.07,0.9,0.72,0.1,0.12,1.0,1.3,0.065,0.05,0.01,0.04,0,lower rate,0.20 μmoles/hr/mg of protein,0.21 μmoles/hr/mg of protein,0.12 μmoles/hr/mg of protein,0.25 μmoles/hr/mg of protein,"Conversion Rate, sec-alcohol to corresponding ketone ([9]; Growth Substrate Propylamine): 0.10 μmoles/hr/mg of protein; Conversion Rate, sec-alcohol to methyl ketone [10]: 0.21 μmoles/hr/mg Protein; Conversion Rate, sec-alcohol to methyl ketone [11]: 0.25 μmoles/hr/mg Protein; oxidation by the purified yeast secondary alcohol dehydrogenase [12]: catalyzed the oxidation"
"CCCC(C)O (centres unmarked) [2-Pentanol, 2-pentanol]",0.82,0.9,1.0,2.7,2.9,1.5,0.5,0.60,2.5,3.5,0.80,0.82,0.25,0.45,0.1,lower rate,1.2 μmoles/hr/mg of protein,1.0 μmoles/hr/mg of protein,0.9 μmoles/hr/mg of protein,1.1 μmoles/hr/mg of protein,"Conversion Rate, sec-alcohol to corresponding ketone ([9]; Growth Substrate Propylamine): 0.62 μmoles/hr/mg of protein; Conversion Rate, sec-alcohol to methyl ketone [10]: 1.0 μmoles/hr/mg Protein; Conversion Rate, sec-alcohol to methyl ketone [11]: 1.2 μmoles/hr/mg Protein; oxidation by the purified yeast secondary alcohol dehydrogenase [12]: catalyzed the oxidation"
